The source of these data is PubChem BioAssay AID1259407 (Chemical Carcinogenesis Research Information System (CCRIS), 2018).

The data set concerns CCRIS mutagenicity, Ames/micronucleus/aberration tests. The data set can be described thus: CCRIS mutagenicity studies. The conditions noted are these: Test System: AMES SALMONELLA TYPHIMURIUM
Where [1] appears, read: Strain/Indicator: TA100, Metabolic Activation: NONE, Method: STANDARD PLATE.
[2] abbreviates: Strain/Indicator: TA1538, Metabolic Activation: NONE, Method: STANDARD PLATE.
Setting [3] is: Strain/Indicator: TA98, Metabolic Activation: NONE, Method: STANDARD PLATE.

Active and inactive are the calls of the source. The rule behind the calls is not given here.

Take `C[n+]1ccn(CCS(C)(=O)=O)c1/C=N/O`: the mutagenic call was “inactive; negative” (Strain/Indicator: TA97, Metabolic Activation: NONE, Method: STANDARD PLATE); “inactive; negative” (Strain/Indicator: TA97, Metabolic Activation: RAT, LIVER, S-9, Method: STANDARD PLATE); “inactive; negative” under setting [1]; “inactive; negative” (Strain/Indicator: TA100, Metabolic Activation: RAT, LIVER, S-9, Method: STANDARD PLATE); “inactive; negative” (Strain/Indicator: TA104, Metabolic Activation: NONE, Method: STANDARD PLATE); “inactive; negative” (Strain/Indicator: TA104, Metabolic Activation: RAT, LIVER, S-9, Method: STANDARD PLATE). Further, the mutagenic call reads like this: (Strain/Indicator: TA1537, Metabolic Activation: NONE, Method: STANDARD PLATE) “inactive; negative”; (Strain/Indicator: TA1537, Metabolic Activation: RAT, LIVER, S-9, Method: STANDARD PLATE) “inactive; negative”; under setting [2], “inactive; negative”; (Strain/Indicator: TA1538, Metabolic Activation: RAT, LIVER, S-9, Method: STANDARD PLATE) “inactive; negative”.

Turning to `CCCCN(CCO)CCCC`, the mutagenic call was “inactive; negative” (Strain/Indicator: TA98, Metabolic Activation: HAMSTER, LIVER, S-9, AROCLOR 1254 (10%), Method: PREINCUBATION); “inactive; negative” (Strain/Indicator: TA98, Metabolic Activation: NONE, Method: PREINCUBATION); “inactive; negative” (Strain/Indicator: TA98, Metabolic Activation: RAT, LIVER, S-9, AROCLOR 1254 (10%), Method: PREINCUBATION); “inactive; negative” (Strain/Indicator: TA100, Metabolic Activation: HAMSTER, LIVER, S-9, AROCLOR 1254 (10%), Method: PREINCUBATION); “inactive; negative” (Strain/Indicator: TA100, Metabolic Activation: NONE, Method: PREINCUBATION); “inactive; negative” (Strain/Indicator: TA100, Metabolic Activation: RAT, LIVER, S-9, AROCLOR 1254 (10%), Method: PREINCUBATION). Further, the mutagenic call reads like this: (Strain/Indicator: TA1535, Metabolic Activation: HAMSTER, LIVER, S-9, AROCLOR 1254 (10%), Method: PREINCUBATION) “inactive; negative”; (Strain/Indicator: TA1535, Metabolic Activation: NONE, Method: PREINCUBATION) “inactive; negative”; (Strain/Indicator: TA1535, Metabolic Activation: RAT, LIVER, S-9, AROCLOR 1254 (10%), Method: PREINCUBATION) “inactive; negative”; (Strain/Indicator: TA1537, Metabolic Activation: HAMSTER, LIVER, S-9, AROCLOR 1254 (10%), Method: PREINCUBATION) “inactive; negative”; (Strain/Indicator: TA1537, Metabolic Activation: NONE, Method: PREINCUBATION) “inactive; negative”; (Strain/Indicator: TA1537, Metabolic Activation: RAT, LIVER, S-9, AROCLOR 1254 (10%), Method: PREINCUBATION) “inactive; negative”.

As for `O=[N+]([O-])c1cccc2c1ccc1cccc([N+](=O)[O-])c12`, the mutagenic call (Strain/Indicator: TA98(1,8-DNP6), Metabolic Activation: NONE, Method: STANDARD PLATE) was “active; positive”; the mutagenic call (Strain/Indicator: TA98(NR), Metabolic Activation: NONE, Method: STANDARD PLATE) is “active; positive”; the mutagenic call under setting [3] was “active; positive”; the mutagenic call under setting [1] is “active; positive”; the mutagenic call (Strain/Indicator: YG1021, Metabolic Activation: NONE, Method: STANDARD PLATE) was “active; positive”; the mutagenic call (Strain/Indicator: YG1024, Metabolic Activation: NONE, Method: STANDARD PLATE) was “active; positive”. In addition, the mutagenic call is “active; positive” (Strain/Indicator: YG1026, Metabolic Activation: NONE, Method: STANDARD PLATE) and “active; positive” (Strain/Indicator: YG1029, Metabolic Activation: NONE, Method: STANDARD PLATE).

For the compound `O=[N+]([O-])c1cccc2c1[nH]c1ccccc12`, the mutagenic call under setting [3] was “active; positive”; the mutagenic call (Strain/Indicator: TA98, Metabolic Activation: RAT, LIVER, S-9, AROCLOR 1254, Method: STANDARD PLATE) is “active; positive”; the mutagenic call (Strain/Indicator: TA98, Metabolic Activation: RAT, LIVER, S-9, PHENOBARBITAL, Method: STANDARD PLATE) is “active; positive”; the mutagenic call under setting [1] is “inactive; negative”; the mutagenic call (Strain/Indicator: TA100, Metabolic Activation: RAT, LIVER, S-9, PHENOBARBITAL, Method: STANDARD PLATE) is “inactive; negative”; the mutagenic call under setting [2] is “active; positive”. The mutagenic call reads like this: (Strain/Indicator: TA1538, Metabolic Activation: RAT, LIVER, S-9, PHENOBARBITAL, Method: STANDARD PLATE) “active; positive”; (Strain/Indicator: TA1977, Metabolic Activation: NONE, Method: STANDARD PLATE) “inactive; negative”; (Strain/Indicator: TA1977, Metabolic Activation: RAT, LIVER, S-9, PHENOBARBITAL, Method: STANDARD PLATE) “inactive; negative”.
